Columns and labels:
[1] = test system: rodent LT models; conditions: drug given at the time of liver procurement; cited from earlier work
[2] = test system: LT recipients; conditions: emricasan in preservation flush solution vs placebo group; cited from earlier work
[3] = clinical trials for liver transplant and NASH; cited from earlier work
[4] = test system: discarded DCD human livers; assay: RNA sequencing of liver biopsies during NMP (differential expression, IPA, GO)
Protocol: RNA purification and sequencing: Core needle biopsies taken immediately prior to perfusion and after 3 and 6 hours of perfusion were used for transcriptome sequencing. […] The differential gene expression threshold for significance was set to a Benjamini-Hochberg false discovery rate (FDR)<0.05.
In brief, tissues samples from livers taken immediately prior to perfusion and after 3 and 6 hours of perfusion were used for transcriptome sequencing. Core needle biopsies from the right liver lobe were collected in RNAlater solution (Sigma-Millipore, Waltham, MA, USA) and stored overnight at 4° C. Tissue samples were then removed from solution and stored at −80° C. Total RNA was isolated using the RNeasy Mini Kit (Qiagen, Germantown, MD, USA) according to manufacturer guidelines. 500 ng of each sample was sequenced on an Illumina HiSeq 4000 using 9 PCR cycles by GENEWIZ (South Plainfield, NJ, USA). Raw RNA-Seq data files were transferred to the Brown University computing cluster via sFTP and aligned to the human genome build 38 using STAR 2.7.3a (see, e.g., ref. 25). While sequencing was performed in two batches, the alignment was performed on all samples simultaneously using the same settings.
In brief, raw read counts were normalized using the Trimmed Mean of M method following removal of low-count genes (fewer than 10 reads in the smallest library). Differential gene expression analysis was conducted in R (see, e.g., ref. 27) using edgeR (see, e.g., ref. 28). The significance cutoff for differential gene expression was set to a Benjamini-Hochberg false-discovery rate (FDR or q-value)<0.05. Canonical pathway and upstream regulator enrichment analysis was generated through Ingenuity Pathway Analysis (IPA, Qiagen) (see, e.g., ref. 29). […]
Gene ontology (GO) enrichment analysis was performed using the R package GOseq (see, e.g., ref. 31). […] The genes with the highest amount of variance explained by principal component 1, 2, or 3 cumulatively totaling to 10% of the total variance explained by the specified PC were further analyzed.

[5] = test system: discarded DCD human livers; assay: Normothermic machine perfusion (NMP) of discarded human livers with emricasan in the perfusate: hepatocellular and cholangiocellular function
Description: Human liver perfusions: Sixteen human livers from donation after circulatory death, with consent for research, were included in this study after being turned down by all transplant centers in the respective region of procurement. Human livers were procured in standard fashion through two Organ Procurement Organizations (OPO): New England Donor Services (Waltham, MA, USA) and LiveOnNewYork (New York, NY). In addition, one liver was obtained through the International Institute for the Advancement of Medicine (IIAM, Edison, NJ), which originated from the Gift of Life Donor Program (Philadelphia, PA). Informed consent was obtained from donors by the OPO. The Massachusetts General Hospital and Lifespan Institutional Review Boards, as well as the two OPOs and IIAM, approved this study (No. 2011P001496). No organs were procured from prisoners and no vulnerable populations were included in this study.
Procurement techniques based on donation after circulatory death followed standard methods. Donor livers were flushed in situ with University of Wisconsin solution. Total warm ischemic time was defined as the period from extubation to cold flush. Functional WIT was defined as the period from asystole to cold flush. Cold ischemic time was defined from cold flush to initiation of machine perfusion. All livers were transported via ground courier. After arrival to the laboratory under static cold storage, livers underwent standard back bench preparation for machine perfusion.
Grafts were perfused on the Liver Assist device (Organ Assist, Groningen, Netherlands) using a previously described protocol (see, e.g., ref. 14). Briefly, perfusate composition consisted of O+ packed red blood cells, human albumin, Lactated Ringer's solution, and heparin. […] Perfusate, bile, and tissue biopsies were collected and analyzed at multiple time points. Grafts were assessed for adequate hepatocellular and cholangiocellular function. […] Cholangiocellular (biliary) viability metrics were measured according to van Leeuwen (see, e.g., ref. 15). […]

[6] = test system: discarded DCD human livers; assay: H&E histology of liver biopsies during NMP; conditions: EM, IHF and AHF livers
Protocol: Histology and immunohistochemistry: Core needle biopsies taken from the right liver lobe at indicated intervals were fixed in formalin and embedded in paraffin. Hematoxylin and eosin (H&E) stains were performed on all biopsies to assess the degree of necrosis, inflammatory cell infiltrate, and reperfusion injury using a validated scoring system (see, e.g., ref. 17). Immunohistochemistry for LC3 was performed as previously described (see, e.g., ref. 3).

[7] = test system: discarded DCD human livers; assay: Western immunoblot and LC3B immunohistochemistry of liver biopsies during NMP (UPR, autophagy, necroptosis)
Protocol: Sequential wedge biopsies from the right lobe of each liver were performed at indicated intervals, flash frozen in liquid nitrogen, and stored at −80° C. Tissue samples (20 mg) were homogenized and Western immunoblots performed as previously described (see, e.g., ref. 16). A full list of antibodies used is provided below in Table 3.
To compare target protein expression, densitometry quantification was conducted. Both proteins varied across samples and the changes were not consistent between the 2 proteins, with the variation representing the biologic variability in the human liver.
In brief, immunohistochemistry was performed using antibodies directed toward LC3B (Product No. NB100-2220, Novus Biologicals, Littleton, CO, USA). Paraffin sections (6 μm) were deparaffinized with xylene and rehydrated with graded ethanol. Antigen retrieval was performed by sub-boiling in 1×-diluted Dako Target Retrieval Solution for 10 min (DakoCytomation, Inc., Carpinteria, CA). Slides were then quenched in 3% H2O2 and blocked in 2.5% Normal Horse Serum (Vector Labs, Burlingame, CA) before overnight incubation in primary antibody (1:200 dilution) at 4° C. Slides were incubated with a horseradish-peroxidase conjugated secondary rabbit antibody (Vector Laboratories) for 1 hr prior to staining with DAB (Vector Laboratories). Slides were counterstained with hematoxylin. Omission of the primary antibody served as a negative control.

[8] = test system: discarded DCD human livers; assay: Perfusate plasma apoptosis biomarkers, cell-free DNA and cytokines during liver NMP (ELISA kits)
Protocol: With respect to the experimental group (emricasan, EM), 5 consecutive human livers turned down for transplant were enrolled. Emricasan, also known as IDN-6556 (MedChemExpress, Monmouth Junction, NJ), dissolved in DMSO was added to the circulating perfusate prior to initiation of liver perfusion at a dose of 5 mg/kg liver weight (1 mL total volume, 0.05% v/v total perfusate). Vehicle control (1 mL DMSO) was previously incorporated in the control liver perfusions (FIG. 6).
Protein Analysis: Perfusate collected at the indicated time points was centrifuged at 5000 g and the plasma collected and stored at −80° C. for later analysis. Enzyme-linked immunosorbent assays (ELISA) were performed for various proteins according to manufacturers' guidelines.

C[C@H](NC(=O)C(=O)Nc1ccccc1C(C)(C)C)C(=O)N[C@@H](CC(=O)O)C(=O)COc1c(F)c(F)cc(F)c1F [emricasan]
survival in rodent LT models [1]: improved | AST and ALT levels in LT recipients [2]: significantly lower | safety and tolerance profile [3]: excellent | enrichment of IRI canonical pathways (innate immunity, sinusoidal endothelial cell activation), IPA ([4]; 3 and 6 h vs pre-perfusion): minimal enrichment | differentially expressed genes after 3 and 6 hours of NMP vs pre-perfusion ([4]; compared to both control groups): markedly smaller set of DEGs | upregulation of pro-inflammatory and pro-death genes ([4]; compared to controls (viable and nonviable livers)): decreased upregulation | number of emricasan-treated livers demonstrating adequate hepatocellular function ([5]; 5 livers treated, 5 mg/kg liver weight in perfusate, NMP): 4 | IRI in cholangiocytes / cholangiocellular function ([5]; end-ischemic NMP of DCD livers): did not appear to improve IRI in cholangiocytes | ischemia-reperfusion injury in hepatocytes ([5]; treatment during NMP after cold and warm ischemia): mitigated | inflammatory infiltrate or necrosis (H&E histology) [6]: no significant differences | shift of LC3B to granule staining pattern (immunohistochemistry) ([7]; 3 and 6 hr of NMP): not observed | induction of necroptosis ([7]; NMP with emricasan): did not lead to induction of necroptosis | Phospho-MLKL ([7]; before and during perfusion): below the limit of detection | circulating cell-free DNA (DAMP) ([8]; NMP, compared to control groups): significantly reduced | perfusate caspase-3/7 enzyme activity ([8]; NMP, vs control groups): significantly lower | perfusate level of cleaved cytokeratin 18 ([8]; NMP, vs control groups): significantly lower | evidence of apoptosis (circulating cleaved cytokeratin 18 and caspase-3/7 activity) ([8]; after both 3 and 6 hours of NMP): significantly decreased | cell-free DNA in perfusate ([8]; at 1 and 6 hours of NMP): significantly lower | circulating interleukin-1β (IL-1β) ([8]; compared only to IHF livers): lower | circulating tumor necrosis factor-α (TNFα) ([8]; compared only to IHF livers): lower | perfusate interferon-γ (IFNG) ([8]; compared to AHF and IHF groups): significantly lower | perfusate interleukin-6 (IL-6) ([8]; compared to AHF and IHF groups): significantly lower | perfusate interleukin-8 (IL-8) ([8]; compared to AHF and IHF groups): significantly lower
